# Data: patent US7557110B2, “Pyrazolo[1,5-A] pyrimidine derivatives” (Teijin Pharma Limited, priority 2003, dated 2009)
# pIC50: −log10 of the molar value. Read-outs that look alike come from different tables or passages of the source.
# Assays:
# CDK-2 = CDK-2 (Homo sapiens, UniProt P24941); assay: CDK-2 enzyme activity inhibition (33P-ATP filter plate kinase assay); assay type: biochemical
# Text: [General Procedure for Measurement of CDK-2 Enzyme Activity Inhibition]
# MAPKAP-K2 = MAPKAP-K2 (Homo sapiens, UniProt P49137); assay: MAPKAP-K2 enzyme activity inhibition (33P-ATP filter plate kinase assay); assay type: biochemical; details: MAPKAP-K2 inhibitory activity; assays conducted at typically 1-100 μM; further: key: +: active; ++: more active; +++: very active
# Chain of MAPKAP-K2 (P49137 whole entry): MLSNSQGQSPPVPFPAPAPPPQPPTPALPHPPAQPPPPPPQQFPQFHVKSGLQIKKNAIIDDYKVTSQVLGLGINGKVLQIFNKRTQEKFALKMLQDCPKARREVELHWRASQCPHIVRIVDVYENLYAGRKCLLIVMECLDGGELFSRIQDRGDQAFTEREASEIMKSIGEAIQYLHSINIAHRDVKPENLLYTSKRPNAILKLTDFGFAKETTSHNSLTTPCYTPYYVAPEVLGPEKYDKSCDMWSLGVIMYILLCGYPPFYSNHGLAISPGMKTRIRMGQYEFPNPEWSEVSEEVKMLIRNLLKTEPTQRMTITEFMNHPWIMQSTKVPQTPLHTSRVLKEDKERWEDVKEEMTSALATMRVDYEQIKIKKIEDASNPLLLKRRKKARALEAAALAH
# Method: [General Procedure for Measurement of MAPKAP-K2 Enzyme Activity Inhibition]
# After conducting the reaction for 30 minutes at room temperature, an equivalent volume of a 200 mM phosphoric acid solution was added to suspend the reaction, and 90 μL of the reaction product was adsorbed onto a MultiScreen PH plate (Millipore) and rinsed with a 100 mM phosphoric acid solution. After drying the plate, 30 μL of MicroScint-O (Packard BioScience) was added, and the cpm was measured with a scintillation counter to determine the inhibiting activity. Substrate peptide is […]
# [1] = read-out: CDK-2 inhibition IC50
Structure (SMILES),pIC50 (CDK-2; [1]),activity (efficacy against MAPKAP-K2) (MAPKAP-K2),pIC50 (CDK-2)
"Cc1c(N[C@H]2CC[C@H](N)CC2)nc2ccnn2c1Nc1ccc(OC(C)C)cc1 [Compound 197, {5-[(trans-4-aminocyclohexyl)amino]-6-methyl(pyrazolo[1,5-a]pyrimidin-7-yl)}[4-(methylethoxy)phenyl]amine]",> 4.00,+++,–
Cc1c(N[C@H]2CC[C@H](N)CC2)nc2ccnn2c1Nc1ccc(-c2cc3ccccc3[nH]2)cc1 [Compound 423],> 4.00,+++,–
Cc1c(N[C@H]2CC[C@H](N)CC2)nc2ccnn2c1Nc1ccc(OCCN2CCOCC2)cc1 [Compound 221],> 4.00,+++,–
Cc1c(NC2CCC(N)CC2)nc2ccnn2c1Nc1ccc(OCC2CCCCN2)cc1 (stereo not drawn) [Compound 251],> 4.00,+++,–
Cc1c(N[C@H]2CC[C@H](N)CC2)nc2ccnn2c1Nc1ccc(OCc2ccccn2)cc1 [Compound 224],> 4.00,+++,–
CCS(=O)(=O)c1ccc(-c2ccc(Nc3c(C)c(N[C@H]4CC[C@H](N)CC4)nc4ccnn34)cc2)cc1 [Compound 351],> 4.00,+++,–
Cc1c(NC2CCC(N)CC2)nc2ccnn2c1Nc1ccc(OC2CCNC2)cc1 (stereo not drawn) [Compound 229],> 4.00,+++,–
Cc1c(N[C@H]2CC[C@H](N)CC2)nc2ccnn2c1Nc1ccc(C(=O)NCc2ccco2)cc1 [Compound 511],> 4.00,+++,–
Cc1c(N[C@H]2CC[C@H](N)CC2)nc2ccnn2c1Nc1ccc(-c2csc3ccccc23)cc1 [Compound 292],> 4.00,++,–
Cc1cccc(-c2ccc(Nc3c(C)c(N[C@H]4CC[C@H](N)CC4)nc4ccnn34)cc2)c1 [Compound 320],> 4.00,+++,–
Cc1c(N[C@H]2CC[C@H](N)CC2)nc2ccnn2c1Nc1ccc(-c2cccc(N)c2)cc1 [Compound 288],> 4.00,+++,–
COCc1cccc(-c2ccc(Nc3c(C)c(N[C@H]4CC[C@H](N)CC4)nc4ccnn34)cc2)c1 [Compound 354],> 4.00,+++,–
Cc1c(N[C@H]2CC[C@H](N)CC2)nc2ccnn2c1Nc1ccc(OCCCl)cc1 [Compound 199],> 4.00,+++,–
Cc1c(N[C@H]2CC[C@H](N)CC2)nc2ccnn2c1Nc1ccc(-c2ccc(OC(F)(F)F)cc2)cc1 [Compound 317],> 4.00,+++,–
Cc1c(N[C@H]2CC[C@H](N)CC2)nc2ccnn2c1Nc1ccc(OCc2ccc(Cl)cc2)cc1 [Compound 211],> 4.00,+++,–
Cc1c(N[C@H]2CC[C@H](N)CC2)nc2ccnn2c1Nc1ccc(-c2cc3ccccc3o2)cc1 [Compound 290],> 4.00,+++,–
Cc1c(N[C@H]2CC[C@H](N)CC2)nc2ccnn2c1Nc1ccc(-c2ccc(O)cc2)cc1 [Compound 306],> 4.00,+++,–
CC(=O)c1ccc(-c2ccc(Nc3c(C)c(N[C@H]4CCCNC4)nc4ccnn34)cc2)s1 [Compound 773],–,+++,> 4.00
CCCNc1c(C)c(N[C@H]2CC[C@H](N)CC2)nc2ccnn12 [Compound 87],> 4.00,++,–
Cc1c(NC2CCCNC2)nc2ccnn2c1Nc1ccc(-c2cccc(CO)c2)cc1 (stereo not drawn) [Compound 445],> 4.00,+++,–
CCc1c(N[C@H]2CC[C@H](N)CC2)nc2ccnn2c1Nc1cccc(C)c1 [Compound 72],> 4.00,+++,–
Cc1c(N[C@H]2CC[C@H](N)CC2)nc2ccnn2c1Nc1ccc(-c2ccc(N)cc2)cc1 [Compound 301],> 4.00,+++,–
Cc1c(NC2CCCNC2)nc2ccnn2c1Nc1ccc(F)c(Cl)c1 (stereo not drawn) [Compound 191],–,+++,> 4.00
Cc1c(N[C@H]2CC[C@H](N)CC2)nc2ccnn2c1Nc1ccc(OC2CCCCC2)cc1 [Compound 202],> 4.00,+++,–
"Cc1c(N[C@H]2CC[C@H](N)CC2)nc2ccnn2c1Nc1ccc(-c2ccccc2)cc1 [Compound 284, {5-[(trans-4-aminocyclohexyl)amino]-6-methyl(pyrazolo[1,5-a]pyrimidin-7-yl)}(4-phenylphenyl)amine]",> 4.00,+++,–
Cc1c(NC2CCC(N)CC2)nc2ccnn2c1Nc1ccc(OCC2CCCN(C)C2)cc1 (stereo not drawn) [Compound 226],> 4.00,+++,–
Cc1c(N[C@H]2CC[C@H](N)CC2)nc2ccnn2c1Nc1ccc(OCc2ccccc2Cl)cc1 [Compound 213],> 4.00,+++,–

Structure (SMILES),pIC50 (CDK-2; [1]),activity (efficacy against MAPKAP-K2) (MAPKAP-K2),pIC50 (CDK-2)
COc1cccc(Nc2c(C)c(N[C@H]3CC[C@H](N)CC3)nc3ccnn23)c1 [Compound 91],> 4.00,++,–
Cc1c(N[C@H]2CC[C@H](N)CC2)nc2ccnn2c1Nc1ccc(-c2cccc(C(F)(F)F)c2)cc1 [Compound 324],> 4.00,+++,–
Cc1c(N[C@H]2CC[C@H](N)CC2)nc2ccnn2c1Nc1ccc(-c2ccc(Cl)cc2)cc1 [Compound 312],> 4.00,+++,–
Cc1csc(-c2ccc(Nc3c(C)c(N[C@H]4CC[C@H](N)CC4)nc4ccnn34)cc2)c1 [Compound 357],> 4.00,+++,–
Cc1c(N[C@H]2CC[C@H](N)CC2)nc2ccnn2c1Nc1ccc(-c2cccc(OC(F)(F)F)c2)cc1 [Compound 316],> 4.00,+++,–
Cc1c(N[C@H]2CC[C@H](N)CC2)nc2ccnn2c1Nc1ccc(-c2cccc(O)c2)cc1 [Compound 307],> 4.00,+++,–
Cc1c(N[C@H]2CC[C@H](N)CC2)nc2ccnn2c1Nc1ccc(-c2cccc(N(C)C)c2)cc1 [Compound 315],> 4.00,+++,–
CCOC(=O)c1ccc(Nc2c(CC)c(N[C@H]3CC[C@H](N)CC3)nc3ccnn23)cc1Cl [Compound 137],> 4.00,+++,–
Cc1c(N[C@H]2CC[C@H](N)CC2)nc2ccnn2c1Nc1ccc(OC(F)(F)F)cc1 [Compound 179],> 4.00,+++,–
Cc1c(N[C@H]2CC[C@H](N)CC2)nc2ccnn2c1Nc1cccc(OCc2ccccc2)c1 [Compound 243],> 4.00,++,–
Cc1c(N[C@H]2CC[C@H](N)CC2)nc2ccnn2c1Nc1ccc(-c2cn[nH]c2)cc1 [Compound 422],> 4.00,+++,–
Cc1c(N[C@H]2CC[C@H](N)CC2)nc2ccnn2c1Nc1ccc(-c2ccccc2F)cc1 [Compound 305],> 4.00,+++,–
CCOc1cccc(Nc2c(C)c(N[C@H]3CC[C@H](N)CC3)nc3ccnn23)c1 [Compound 81],> 4.00,+++,–
Cc1c(N[C@H]2CC[C@H](N)CC2)nc2ccnn2c1Nc1ccc(-c2cccnc2)cc1 [Compound 300],> 4.00,+++,–
CCOc1ccc(Nc2c(C)c(N[C@H]3CC[C@H](N)CC3)nc3c(NC)cnn23)cc1 [Compound 437],> 4.00,+,–
CCOC(=O)c1ccc(Nc2c(CC)c(N[C@H]3CC[C@H](N)CC3)nc3ccnn23)cc1 [Compound 70],> 4.00,+++,–
CCc1c(N[C@H]2CC[C@H](N)CC2)nc2ccnn2c1Nc1ccc(N2CCCC2=O)cc1 [Compound 125],> 4.00,++,–
CCc1c(N[C@H]2CC[C@H](N)CC2)nc2ccnn2c1Nc1ccccc1OC [Compound 42],> 4.00,++,–
CCOc1ccc(Nc2c(C)c(N[C@H]3CC[C@H](N)CC3)nc3c(C(=O)Nc4ccccn4)cnn23)cc1 [Compound 359],> 4.00,++,–
COc1ccc(Nc2c(C)c(N[C@H]3CC[C@H](N)CC3)nc3ccnn23)cc1 [Compound 203],> 4.00,+++,–
CCOc1ccc(Nc2c(C)c(N(C)C3CCCNC3)nc3ccnn23)cc1 (stereo not drawn) [Compound 340],> 4.00,+,–
CCc1c(N[C@H]2CC[C@H](N)CC2)nc2ccnn2c1Nc1cccc(OCc2ccccc2)c1 [Compound 74],> 4.00,++,–
Cc1c(N[C@H]2CC[C@H](N)CC2)nc2ccnn2c1Nc1ccc(C(=O)c2ccccc2)cc1 [Compound 778],> 4.00,+++,–
Cc1c(N[C@H]2CC[C@H](N)CC2)nc2ccnn2c1Nc1ccc(OCCc2ccccn2)cc1 [Compound 225],> 4.00,+++,–
Cc1ccccc1-c1ccc(Nc2c(C)c(N[C@H]3CC[C@H](N)CC3)nc3ccnn23)cc1 [Compound 321],> 4.00,+++,–
Cc1c(N[C@H]2CC[C@H](N)CC2)nc2ccnn2c1Nc1ccc(OCc2cccnc2)cc1 [Compound 222],> 4.00,+++,–
CCc1c(NC2CCCNC2)nc2ccnn2c1Nc1ccc(Br)cc1 (stereo not drawn) [Compound 160],> 4.00,++,–
